Measurements taken from ChEMBL document CHEMBL1201862, “PubChem BioAssay data set” (2004).
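Method: 48-hour compound exposure of cells in 96-well plates, five concentrations, linear interpolation of endpoints. The concentration for 50% growth inhibition is given as GI50.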 The source made the active and inactive calls. Cut-off read from the data, not from the text of the source: active = GI50 up to about 1.1 µM and inactive = higher. Where a SMILES comes first, the peptide text is derived from it. [ ]: non-standard residue; d: D form. The star is where a group is joined. NMeF = CN[CH](Cc1ccccc1)C(=O)O; NMeV = CN[CH](C(=O)O)C(C)C; Boc = CC(C)(C)OC(=O)*; OBn = c1ccc(CO*)cc1

Experiments:
Test in all cases: NCI anticancer screen, dose series, 48 h
[1] = tested on: M19-MEL
[2] = tested on: DMS-273
[3] = tested on: DLD-1
[4] = tested on: RXF 631
[5] = tested on: LXFL 529
[6] = tested on: HOP-18
[7] = tested on: DMS-114
[8] = tested on: KM-20L2
[9] = tested on: XF498

| SMILES | GI50 [1] | GI50 [2] | GI50 [3] | GI50 [4] | GI50 [5] | GI50 [6] | GI50 [7] | GI50 [8] | GI50 [9] |
| --- | --- | --- | --- | --- | --- | --- | --- | --- | --- |
| N=C(N)NS(=O)(=O)c1ccc(NC(=O)c2ccc(Cl)c3c(Nc4ccc(S(=O)(=O)N=C(N)N)cc4)c4ccccc4nc23)cc1 | 49.8 µM (inactive) | > 100 µM (inactive) | 49.2 µM (inactive) | > 100 µM (inactive) | 52.8 µM (inactive) | 68.1 µM (inactive) | > 100 µM (inactive) | > 100 µM (inactive) |  |
| COc1ccc(NC(=O)CC2SC(Nc3ccc(Cl)cc3C)=NC2=O)c([N+](=O)[O-])c1 (centres undefined) | > 100 µM (inactive) | > 100 µM (inactive) | > 100 µM (inactive) | > 100 µM (inactive) | > 100 µM (inactive) |  | > 100 µM (inactive) | > 100 µM (inactive) |  |
| c1ccc(CNn2nnc3ccccc32)cc1 | > 100 µM (inactive) | > 100 µM (inactive) | > 100 µM (inactive) |  | > 100 µM (inactive) |  | > 100 µM (inactive) | > 100 µM (inactive) | > 100 µM (inactive) |
| CC(C)OP(=O)(OC(C)C)/C(=N/Nc1ccccc1[N+](=O)[O-])NCCN/C(=N\Nc1ccccc1[N+](=O)[O-])P(=O)(OC(C)C)OC(C)C | 34.9 µM (inactive) | 35.2 µM (inactive) | 34 µM (inactive) |  | 19.5 µM (inactive) |  | 31.7 µM (inactive) | 24.9 µM (inactive) |  |
| COc1ccc([C@@H]2CC(=O)NCCCNCCCCNCCCN2)cc1 | > 100 µM (inactive) | > 100 µM (inactive) | > 100 µM (inactive) |  | > 100 µM (inactive) | 59.6 µM (inactive) | > 100 µM (inactive) | > 100 µM (inactive) | > 100 µM (inactive) |
| O=C(Nc1ccc(Cl)cc1C(F)(F)F)C(=O)C1CCCS1(=O)=O (centres undefined) | > 100 µM (inactive) |  | > 100 µM (inactive) |  | > 100 µM (inactive) | > 100 µM (inactive) | > 100 µM (inactive) | > 100 µM (inactive) | > 100 µM (inactive) |
| Cc1cn(C2OC(C)(CO)C(O)C2O)c(=O)[nH]c1=O (centres undefined) | > 100 µM (inactive) | > 100 µM (inactive) | > 100 µM (inactive) |  | > 100 µM (inactive) | > 100 µM (inactive) | > 100 µM (inactive) |  |  |
| O=C(O)c1ccc(C2C3C=CC(C3)C2[N+](=O)[O-])cc1 (centres undefined) | > 100 µM (inactive) | > 100 µM (inactive) | > 100 µM (inactive) | > 100 µM (inactive) | > 100 µM (inactive) |  | > 100 µM (inactive) | > 100 µM (inactive) | > 100 µM (inactive) |
| CC(C)(CN1CCCCC1)C(=O)CC(SCCN)c1ccc(Cl)cc1 (centres undefined) | 2.28 µM (inactive) | 1.98 µM (inactive) | 1.59 µM (inactive) | 3.94 µM (inactive) | 1.75 µM (inactive) |  | 1.58 µM (inactive) | 1.67 µM (inactive) | 1.71 µM (inactive) |
| O=Cc1ccccc1COC(=O)c1cc(C(=O)OCc2ccccc2C=O)c(C(=O)OCc2ccccc2C=O)cc1C(=O)OCc1ccccc1C=O | > 100 µM (inactive) | 30.3 µM (inactive) | > 100 µM (inactive) |  | 46.3 µM (inactive) | > 100 µM (inactive) | 49.4 µM (inactive) | > 100 µM (inactive) | > 100 µM (inactive) |
| Cc1c(C)c([N+](=O)[O-])c2c(c1N)C(=O)c1ccccc1C2=O | 90.8 µM (inactive) | > 100 µM (inactive) | > 100 µM (inactive) |  | > 100 µM (inactive) | 33 µM (inactive) | > 100 µM (inactive) | > 100 µM (inactive) | > 100 µM (inactive) |
| C[C@H]1CC(=O)C2=CCCC3(SCCCS3)[C@@H]2[C@H]1CO | 78.5 µM (inactive) | > 100 µM (inactive) | > 100 µM (inactive) | > 100 µM (inactive) | > 100 µM (inactive) | > 100 µM (inactive) | > 100 µM (inactive) |  | > 100 µM (inactive) |
| CC(=O)O[C@]12CCCC1C1(O)C(O)CCCC12 (some centres undefined) | > 100 µM (inactive) | > 100 µM (inactive) |  |  | > 100 µM (inactive) | > 100 µM (inactive) | > 100 µM (inactive) | > 100 µM (inactive) | > 100 µM (inactive) |
| O=C1C2c3[nH]c4ccccc4c3C3CCCCC3C2C(=O)N1c1ccccc1 (centres undefined) | > 100 µM (inactive) | 85.3 µM (inactive) | > 100 µM (inactive) | > 100 µM (inactive) | > 100 µM (inactive) | 37.2 µM (inactive) | > 100 µM (inactive) |  |  |
| Clc1cc(Cl)c2n[se]nc2c1 | > 100 µM (inactive) | > 100 µM (inactive) |  | > 100 µM (inactive) |  | > 100 µM (inactive) |  | > 100 µM (inactive) |  |
| N#C/C(=C\c1ccc2ccccc2c1)C(=O)c1ccccc1 | > 87.9 µM (inactive) | > 100 µM (inactive) | > 100 µM (inactive) |  | > 86.7 µM (inactive) | > 100 µM (inactive) | > 100 µM (inactive) | > 100 µM (inactive) | > 100 µM (inactive) |
| Cc1nc(-c2cccnc2)sc1C(=O)/C=C/c1ccc(Cl)cc1Cl | > 100 µM (inactive) | > 100 µM (inactive) | > 100 µM (inactive) |  |  | > 100 µM (inactive) | 84.3 µM (inactive) | > 100 µM (inactive) |  |
| O=C(OC1CCC(=C2SCCCS2)[C@H]1C1SCCCS1)c1ccccc1 (some centres undefined) | > 100 µM (inactive) | > 100 µM (inactive) | > 100 µM (inactive) | > 100 µM (inactive) | > 100 µM (inactive) |  | 89.5 µM (inactive) | > 100 µM (inactive) |  |
| COC1=C2C[C@H](O)C(C)C[C@@]2(OC)OC1=O (some centres undefined) | > 100 µM (inactive) | > 100 µM (inactive) | > 100 µM (inactive) | > 100 µM (inactive) | > 100 µM (inactive) |  |  |  | > 100 µM (inactive) |
| O=c1ncccn1C1OC(CO)C(O)C1O (centres undefined) | > 100 µM (inactive) | > 100 µM (inactive) | > 100 µM (inactive) |  | > 100 µM (inactive) | > 100 µM (inactive) | > 100 µM (inactive) | > 100 µM (inactive) |  |
| CC(C)C(NC(=O)OC(C)(C)C)C(=O)N(C)C(Cc1ccccc1)C(=O)N(C)C(C(=O)N(C)C(C(=O)OCc1ccccc1)C(C)C)C(C)C (centres undefined) (Boc-V[NMeF][NMeV][NMeV]-OBn; configuration not given here) | > 100 µM (inactive) | 72.8 µM (inactive) |  |  | 7.6 µM (inactive) |  | 62.5 µM (inactive) | > 100 µM (inactive) | 19.4 µM (inactive) |
| C[C@@](O)(/C=C/[C@H]1CC=CC(=O)O1)[C@@H](C[C@@H](O)\C=C/C=C\C=C\CO)OP(=O)(O)O [FOSTRIECIN SODIUM] | 4.17 µM (inactive) | 6.19 µM (inactive) | 13.2 µM (inactive) |  |  |  | 13 µM (inactive) | 1.03 µM (active) | 52.5 µM (inactive) |
